From ChEMBL document CHEMBL1126925, “Nonprostanoid prostacyclin mimetics. 4. Derivatives of 2-[3-[2-(4,5-diphenyl-2-oxazolyl)ethyl]phenoxy]acetic acid substituted alpha to the oxazole ring” (J Med Chem, 1993) come the findings set out here.

pIC50: −log10 of the molar value. Where only a bound is given, the exact number is not on record here.

The species named for the assay is Homo sapiens. In words: In vitro inhibition of ADP-induced aggregation of human platelets. The assay is classed as functional.
Consider `O=C(O)COc1cccc(/C=C/c2nc(-c3ccccc3)c(-c3ccccc3)o2)c1`, for which the pIC50 (commonly the negative decadic logarithm of the IC50, by convention in mol/L) was 4.89. `O=C(O)COc1cccc(CC(c2ccsc2)c2nc(-c3ccccc3)c(-c3ccccc3)o2)c1` (stereo unspecified) gave a pIC50 of 4.68.

The compound `N#C/C(=C\c1cccc(OCC(=O)O)c1)c1nc(-c2ccccc2)c(-c2ccccc2)o1` had a pIC50 of 6.60.

`NC(=O)C(Cc1cccc(OCC(=O)O)c1)c1nc(-c2ccccc2)c(-c2ccccc2)o1` (stereo unspecified) showed a pIC50 of 5.43. With `CC(C)(C)C(Cc1cccc(OCC(=O)O)c1)c1nc(-c2ccccc2)c(-c2ccccc2)o1` (stereo unspecified), the pIC50 was 5.44. Compound `CC(C)OC(=O)C(Cc1cccc(OCC(=O)O)c1)c1nc(-c2ccccc2)c(-c2ccccc2)o1` (stereo unspecified) showed a pIC50 of 5.91. For the compound `CSC(Cc1cccc(OCC(=O)O)c1)c1nc(-c2ccccc2)c(-c2ccccc2)o1` (stereo unspecified), the pIC50 is 5.89. `O=C(O)COc1cccc(CC(c2ccccc2)c2nc(-c3ccccc3)c(-c3ccccc3)o2)c1` (stereo unspecified): the pIC50 is 4.63. This pIC50 lies 1.26 log units lower than the previous one.

Regarding `O=C(O)COc1cccc(CC(c2nc(-c3ccccc3)c(-c3ccccc3)o2)c2cccs2)c1` (stereo unspecified), the pIC50 is 4.48. In turn, `CC(C)C(Cc1cccc(OCC(=O)O)c1)c1nc(-c2ccccc2)c(-c2ccccc2)o1` (stereo unspecified) had a pIC50 of 6.01. With `COC(=O)C(Cc1cccc(OCC(=O)O)c1)c1nc(-c2ccccc2)c(-c2ccccc2)o1` (stereo unspecified), the pIC50 is 7.10. In turn, `O=C(O)COc1cccc(CC(C(=O)O)c2nc(-c3ccccc3)c(-c3ccccc3)o2)c1` (stereo unspecified) showed a pIC50 of 4.85. Compared with the last compound, the pIC50 is 2.25 log units lower. Under `CS(=O)(=O)C(Cc1cccc(OCC(=O)O)c1)c1nc(-c2ccccc2)c(-c2ccccc2)o1` (stereo unspecified) stands 5.10; under `O=C(O)COc1cccc(CC(CCO)c2nc(-c3ccccc3)c(-c3ccccc3)o2)c1` (stereo unspecified), 5.53. In turn, `C=CCC(Cc1cccc(OCC(=O)O)c1)c1nc(-c2ccccc2)c(-c2ccccc2)o1` (stereo unspecified) gave a pIC50 of 6.24. Under `CNC(=O)/C(=C\c1cccc(OCC(=O)O)c1)c1nc(-c2ccccc2)c(-c2ccccc2)o1` stands 4.82. `CCOC(=O)/C(=C\c1cccc(OCC(=O)OC(C)(C)C)c1)c1nc(-c2ccccc2)c(-c2ccccc2)o1` showed a pIC50 of less than 4.22. As to `CCOC(=O)/C(=C\c1cccc(OCC(=O)O)c1OC)c1nc(-c2ccccc2)c(-c2ccccc2)o1`, the pIC50 was 6.89. Under `CCOC(=O)C(Cc1cccc(OCC(=O)O)c1OC)c1nc(-c2ccccc2)c(-c2ccccc2)o1` (stereo unspecified) stands 5.93. `CCOC(=O)/C(=C\c1cccc(OCC(=O)O)c1)c1nc(-c2ccccc2)c(-c2ccccc2)o1` showed a pIC50 of 6.44. In the case of `O=C(O)COc1cccc(CC(CCCCO)c2nc(-c3ccccc3)c(-c3ccccc3)o2)c1` (stereo unspecified) it was 5.33. The compound `CN(C)C(=O)C(=Cc1cccc(OCC(=O)O)c1)c1nc(-c2ccccc2)c(-c2ccccc2)o1` had a negative logarithm of the IC50 (pIC50) of 4.91. Consider `CCOC(=O)C(Cc1cccc(OCC(=O)O)c1)c1nc(-c2ccccc2)c(-c2ccccc2)o1` (stereo unspecified), for which the pIC50 was 6.92. `O=C(O)COc1cccc(/C=C\c2nc(-c3ccccc3)c(-c3ccccc3)o2)c1` had a pIC50 of 6.74. Under `CN(C)C(=O)C(Cc1cccc(OCC(=O)O)c1)c1nc(-c2ccccc2)c(-c2ccccc2)o1` (stereo unspecified) stands 5.45; under `C=CCC(Cc1cccc(OCC(=O)O)c1)(C(=O)OCC)c1nc(-c2ccccc2)c(-c2ccccc2)o1` (stereo unspecified), 5.11. On to `CCOC(=O)C(=Cc1cccc(OCC(=O)OC)c1)c1nc(-c2ccccc2)c(-c2ccccc2)o1` [listing 1 of 2 here], for which the pIC50 was 4.71. In turn, `N#CC(Cc1cccc(OCC(=O)O)c1)c1nc(-c2ccccc2)c(-c2ccccc2)o1` (stereo unspecified) gave a pIC50 of 6.36. Compared with the last compound, the pIC50 is 1.65 log units higher. As for `CNC(=O)C(Cc1cccc(OCC(=O)O)c1)c1nc(-c2ccccc2)c(-c2ccccc2)o1` (stereo unspecified), the pIC50 is 6.16. As for `C[S+]([O-])C(Cc1cccc(OCC(=O)O)c1)c1nc(-c2ccccc2)c(-c2ccccc2)o1` (stereo unspecified), the pIC50 is 5.15.

`O=C(O)COc1cccc(CC(CO)c2nc(-c3ccccc3)c(-c3ccccc3)o2)c1` (stereo unspecified): the negative logarithm of the IC50 (pIC50) was 5.03. `O=C(O)COc1cccc(/C=C(\C(=O)O)c2nc(-c3ccccc3)c(-c3ccccc3)o2)c1` gave a pIC50 of 4.69. In the case of `O=C(O)COc1cccc(CC(CCCO)c2nc(-c3ccccc3)c(-c3ccccc3)o2)c1` (stereo unspecified) it was 5.77; in that of `CCOC(=O)C(=Cc1cccc(OCC(=O)OC)c1)c1nc(-c2ccccc2)c(-c2ccccc2)o1` [listing 2 of 2 here], 5.70; in that of `CCOP(=O)(OCC)C(Cc1cccc(OCC(=O)O)c1)c1nc(-c2ccccc2)c(-c2ccccc2)o1` (stereo unspecified), 6.05. The compound `CC#CCC(C)[C@H](O)/C=C/[C@@H]1[C@H]2C/C(=C/CCCC(=O)O)C[C@H]2C[C@H]1O` (stereo partly specified) [ILOPROST] had a pIC50 of 8.70. This pIC50 lies 2.65 log units higher than the previous one.
